Assay results published in patent US9554987B2, “Methods and formulations for treating sialic acid deficiencies” (ULTRAGENYX PHARMACEUTICAL INC., priority 2010, dated 2017).

Columns and labels:
[1] = tested on: canine; assay: Canine chronic toxicology study; type: in vivo, dog; settings: very highest 2,000 mg/kg dose level
[2] = tested on: male beagle dogs; assay: Clinical signs and body weight in the single dose dog study (Example 5); type: in vivo, beagle dog (Canis familiaris); settings: study period
Text: Before dosing initiation, all animals were weighed and assigned to treatment groups. At the start of treatment, animals were 7-16 months of age and ranged in weight as 6.4 to 9.4 kg. Animals were housed individually in stainless steel cages equipped with a mesh-type floor and an automatic watering valve. A standard certified pelleted commercial dog food (approximately 400 g of Certified Canine Diet 5C07, PMI Nutrition International, Inc.) was provided to each animal once daily, except during designated procedures. Maximum allowable concentrations of contaminants in the diet (e.g., heavy metals, aflatoxin, organophosphates, chlorinated hydrocarbons, PCBs) were controlled and routinely analyzed by the manufacturers. It was considered that there were no known contaminants in the food that could have interfered with the objectives of the study. Municipal tap water, which was softened, purified by reverse osmosis and exposed to ultraviolet light, was freely available except during designated procedures. It was considered that there were no known contaminants in the water that could have interfered with the objectives of the study. Each Animal was provided with a floor toy, except during designated activities.
Individual body weights were measured once during the predose period and prior to each dose on dosing days.

For CC(=O)N[C@H]1[C@H]([C@H](O)[C@H](O)CO)OC(O)(C(=O)O)C[C@@H]1O (stereo partly drawn) [sialic acid, 5-N-acetylneuraminic acid], the “finding in canine chronic toxicology study” value [1] was “loosening of stools”, the treatment-related clinical signs ([2]; oral or intravenous administration) was “no treatment-related clinical signs” and the “body weight or body weight gains” value [2] was “no treatment related changes in body weight or body weight gains”.
